Data from paper PMC6150246, “Design, Synthesis and Preliminary Biological Evaluation of Novel Benzyl Sulfoxide 2-Indolinone Derivatives as Anticancer Agents” (Molecules : A Journal of Synthetic Chemistry and Natural …, 2017).

How the values were obtained:
[1] = target: tyrosine kinase; experiment: Tyrosine kinase inhibitory activity assay (self-made ELISA kit); format: biochemical; settings: tyrosine kinase tissue extract, 37 °C 30 min
Protocol: The 16 designed compounds were first evaluated for tyrosine kinase inhibitory activity using ELISA assay. Indo 5 was used as a reference compound. The kit was self-made and is a very effective and economical method for preliminary tyrosine kinase inhibitory activity evaluation.
The tyrosine kinase inhibitory activity assay was performed as described in the literature. Details of the experimental procedures are presented in Supplementary Materials associated with this article. The IC50 was calculated using GraphPad Prism Software (GraphPad Prism 5, La Jolla, CA, USA). For each concentration, at least three wells were performed to calculate the average parameter.
100μL to each well. The plate was covered with its lid, and incubated at 4℃ overnight (10-12 hours). Then it was washed with 200μL elution buffer once, and dried at 37℃ for 2 h. After that, it was washed with 10mM PBS once, dried at room temperature, and then stored at 4℃ […]
2.1.5. Groups: Blank control: 60μL 1×tyrosine kinase buffer + 50μL 1×tyrosine kinase buffer containing ATP; Negative control: 10μL 1×tyrosine kinase buffer + 50μL 1×tyrosine kinase buffer containing tissue extract + 50μL 1×tyrosine kinase buffer containing ATP; Positive control: 10μL 1×tyrosine kinase buffer containing L029 + 50μL 1×tyrosine kinase buffer containing tissue extract + 50μL 1×tyrosine kinase buffer containing ATP; Vehicle control: 10μL 1×tyrosine kinase buffer containing DMSO + 50μL 1×tyrosine kinase buffer containing tissue extract + 50μL 1×tyrosine kinase buffer containing ATP; Compounds to be screened: 10μL 1×tyrosine kinase buffer containing compounds to be tested + 50μL 1× tyrosine kinase buffer containing tissue extract + 50μL 1×tyrosine kinase buffer containing ATP. (First, L029 and the compounds were allowed to interact with the tyrosine kinase tissue extract at room temperature for 10 min in advance, and did the same to the Blank control and the Vehicle control, then 50μL 1×tyrosine kinase buffer containing ATP was added to […]
2.1.6. Tyrosine kinase inhibitory activity assay: 1×tyrosine kinase buffer was prepared by evenly mixing 1 mL 10× tyrosine kinase buffer with 9 mL DDW. The tissue extract was diluted with 1×tyrosine kinase buffer appropriately, mixed with it gently and evenly, and placed on ice. ATP stock solution was mixed with 1×tyrosine kinase buffer at the final concentration of 3mM , and placed on ice. The microplate was added in respective wells with the groups formulated as above, covered with the lid, and incubated at 37℃ for 30 min. The microplate was washed with 200μL elution buffer and tapped until the residual buffer was removed, and this procedure was repeated for five times. To each well, 100μL antibody diluent (antibody elution buffer diluted at a ratio of 1:2000) was added. The microplate was covered with the lid, and incubated at room temperature for 30 min. OPD solution was prepared by addition of 4 mg OPD into a mixture of 4.86 mL 0.1 mol/L citric acid solution and 5.14 mL 0.2 mol/L Na2HPO4 solution, followed by addition of 50μL 30% H202 to allow for complete dissolution, and then was protected from light. The antibody solution was […]
removed. The microplate was washed with 200μL elution buffer and tapped until the residual buffer was removed, and this procedure was repeated for five times. 100μL freshly prepared OPD was added, and reacted at room temperature light tight for precisely 7 min. Negative […]
100μL 2.5 N H2SO4 was added to terminate the reaction. OD
2.1.7. Sample screening: Samples were screened preliminarily by using triplicate assay. The effect of the samples on tyrosine kinase inhibitory activity was tested, and the inhibition rate was calculated. Inhibition rate (%)=(ODnegative control – ODsample) / (ODnegative control* – ODblank) × 100%; *While calculating inhibition rate of positive drugs, ODnegative control in the equation was replaced with ODvehicle control to exclude the influence of DMSO on tyrosine kinase activity. […]
2. S. Praveen Kumar, Jiri Gut, Rita C. […]

[2] = system: human cervical carcinoma cell line HeLa; experiment: MTS cytotoxicity assay, HeLa; format: cell-based; settings: for IC50: Homo sapiens, HeLa, 48 h treatment
Description: (§1) To investigate the relationship between anticancer activity and tyrosine kinase inhibitory activity, these compounds were further evaluated for in vitro cytotoxicity against five cancer cell lines (human cervical carcinoma cell line HeLa, human breast carcinoma cell line MCF-7, human liver carcinoma cell line HepG2, human tongue carcinoma cell line SCC-15, and human lung carcinoma A549) using MTS assay. Indo 5 was also used as a reference compound.
(§2) The five types of human cancer cell lines (HeLa, HepG2, MCF-7, SCC-15, and A549) were cultured aseptically using Dulbecco’s modified Eagle’s medium (DMEM) supplemented with 10% (v/v) fetal bovine serum (FBS) and penicillin (100 units mL^−1)/streptomycin ([…]), at pH 7.2 and 5% CO2 humidified atmosphere at 37 °C. After attaining 80% confluence, the cells were trypsinized with 0.25 trypsin–EDTA and diluted with media to a fixed number of cells.
(§3) Cytotoxic activity was assessed using the standard MTS method by using triplicate assay. The cells were seeded into 96-well plates containing the medium at the density of 4000–6000 cells/mL (100 μL/well). The compounds were dissolved in DMSO to the concentration of 100 mM and diluted in a culture medium to the concentrations needed. After 24 h, the cultured cells were treated with concentrations of synthesized compounds (3.125 μM to 100 μM for tumor cells) for 48 h. After 48 h of incubation, the supernatant was replaced by fresh medium (100 μL/well) and 10 μL MTS reagent ([3-(4,5-dimethylthiazol-2-yl)-5-(3-carboxymethoxyphenyl)-2-(4-sulfophenyl)-2H-tetrazolium, inner salt]) was added to each well. The plate was further incubated for 3 h at 37 °C in 5% CO2. The optical absorbance in individual wells was determined at 492 nm using a microplate reader. The inhibition rates were calculated by the following formula: Inhibition rate (%) = (ODnegative control − ODsample)/(ODnegative control − ODblank) × 100%
(§4) IC50 was calculated using GraphPad Prism Software (GraphPad Prism 5, La Jolla, CA, USA). For each concentration, at least three wells were performed to calculate the average parameter.

[3] = system: human breast carcinoma cell line MCF-7; experiment: MTS cytotoxicity assay, MCF-7; format: cell-based; settings: for IC50: Homo sapiens, MCF7, 48 h treatment
Description: as §1, §2, §3, §4

[4] = system: human liver carcinoma cell line HepG2; experiment: MTS cytotoxicity assay, HepG2; format: cell-based; settings: for IC50: Homo sapiens, HepG2, 48 h treatment
Description: as §1, §2, §3, §4

[5] = system: human tongue carcinoma cell line SCC-15; experiment: MTS cytotoxicity assay, SCC-15; format: cell-based; settings: for IC50: Homo sapiens, SCC-15, 48 h treatment
Description: as §1, §2, §3, §4

[6] = system: human lung carcinoma A549; experiment: MTS cytotoxicity assay, A549; format: cell-based; settings: Homo sapiens, A549, 48 h treatment
Description: as §1, §2, §3, §4

[7] = system: five human cancer cell lines (HeLa, HepG2, MCF-7, SCC-15, and A549); experiment: MTS cytotoxicity assay, across the cancer cell line panel; format: cell-based; settings: for IC50: Homo sapiens, average over the cancer cell lines, read-out: average IC50 value (antitumor potential); for anticancer / antiproliferative activity over the cell line panel, in words: MTS, Indo 5 as reference
Description: as §1, §2, §3, §4

SMILES	IC50 [1] [µM]	IC50 [2] [µM]	activity against the MCF-7 cell line, in words [3]	IC50 [3] [µM]	activity against the HepG2 cell line, in words [4]	IC50 [4] [µM]	activity against the SCC-15 cell line, in words [5]	IC50 [5] [µM]	IC50 [6] [µM]	IC50 [7] [µM]	anticancer / antiproliferative activity over the cell line panel, in words [7]	melting point [°C]	activity against the HeLa cell line, in words ([2]; Indo 5 as reference)
O=C1Nc2ccccc2/C1=C/[S+]([O-])Cc1ccc(Br)cc1 (stereo not shown) [Compound 6j, (Z)-3-(((4-Bromobenzyl)sulfinyl)methylene)indolin-2-one]	1.34 ± 0.03	24.1 ± 0.52	good antitumor activity	30.77 ± 0.29	considerable cytotoxic activity	36.9 ± 0.49	considerable cytotoxic activity	34.9 ± 0.34	44 ± 1.89	< 40	comparable antiproliferative activity against four cancer cell lines compared with compound Indo 5	195 to 196	
O=C1Nc2ccc(Br)cc2/C1=C/[S+]([O-])Cc1ccccc1 (stereo not shown) [Compound 6o, (Z)-3-((Benzylsulfinyl)methylene)-5-bromoindolin-2-one]	2.69 ± 0.29	18.2 ± 0.66	good antitumor activity	32.3 ± 0.77	considerable cytotoxic activity	54.4 ± 0.88	considerable cytotoxic activity	28.6 ± 1.58	54.9 ± 0.66	< 40	comparable antiproliferative activity against four cancer cell lines compared with compound Indo 5	200 to 201	stronger activity than Indo 5
